Experimental data from patent US20120190743A1, “COMPOUNDS FOR TREATING DISORDERS OR DISEASES ASSOCIATED WITH NEUROKININ 2 RECEPTOR ACTIVITY” (UNITED PARAGON ASSOCIATES INC., priority 2009, published 2012).

Tests used:
human NK2 receptor [1] = target: T1, human NK2 receptor (Homo sapiens, UniProt P21452); test: [125I]neurokinin A radioligand binding assay, CHO cells expressing recombinant human NK2 receptor; conditions: various concentrations
T1 construct: expressed in transfected cells; host or cells: Chinese Hamster Ovary (CHO) cells
T1 sequence (P21452 1-398): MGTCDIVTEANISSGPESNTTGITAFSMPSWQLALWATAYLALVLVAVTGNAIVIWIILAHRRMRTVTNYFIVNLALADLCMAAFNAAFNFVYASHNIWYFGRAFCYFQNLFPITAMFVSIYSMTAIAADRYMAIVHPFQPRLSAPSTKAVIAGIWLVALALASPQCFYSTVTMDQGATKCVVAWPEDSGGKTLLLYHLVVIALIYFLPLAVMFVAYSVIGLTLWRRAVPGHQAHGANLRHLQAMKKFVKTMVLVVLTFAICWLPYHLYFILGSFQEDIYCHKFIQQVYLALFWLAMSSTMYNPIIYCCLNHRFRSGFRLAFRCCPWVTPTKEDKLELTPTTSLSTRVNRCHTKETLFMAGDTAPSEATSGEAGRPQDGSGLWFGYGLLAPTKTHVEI
Protocol: The contents of Formulation A capsules were dissolved using various solvents and extracted using four different processes, as described in detail below. […] These isolates were called: Sample #19 Top Isolate, Sample #19 Bottom Isolate, Sample #20 Top Isolate, Sample #20 Bottom Isolate, Fraction X Isolate and Sample #2 Isolate. These isolates were then each tested in the radioligand binding assay.

human NK2 receptor [2] = target: T1, human NK2 receptor; test: Cellular/functional Ca2+ flux antagonist assay, CHO-K1 cells expressing recombinant human NK2 receptor; format: cell-based; conditions: 3×10^−7 M to 1×10^−4 M, agonist [bAla]-NKA (4-10) 0.3 nM, FIG. 12
Protocol: 6-methyl-myristic acid 2,3-dihydroxypropyl ester was synthesized as described above, and myristic acid 2,3-dihydroxypropyl ester was obtained. They were each prepared as solutions by addition of dimethyl sulfoxide (DMSO) to a concentration of 10 mM. These compounds were then used in cellular/functional calcium flux agonist and antagonist assays to determine the effect the compounds have on human NK2 receptor activity as measured by changes intracellular calcium measurements. These assays were carried out based on the method of Gerard et al.
The NK2 receptor antagonist assay was performed essentially as follows. CHO-K1 cells stably expressing recombinant human NK2 receptor were plated on mixed extracellular matrix overnight in complete media. One hour before the assay, the media was replaced with Hank's Buffered Salt Solution (HBSS) containing 0.1% bovine serum albumin. The cells were then loaded with dye that measures intracellular calcium and baseline measurements of intracellular calcium were taken. […] Fluorescence at 485 nm excitation/515 nm emission was measured every 2 seconds for at least two minutes. The peak height of fluorescence in each of the wells receiving controls, compound 2 or compound 3 was recorded and compared to the peak height of fluorescence in the wells receiving only the agonist. […]

Row | SMILES | effect on neurokinin A binding to the NK2 receptor (in words) (human NK2 receptor [1]) | antagonist activity in functional NK2 receptor antagonist assay (in words) (human NK2 receptor [2])
1 | CCCCCCCCC(C)CCCCC(=O)OCC(O)CO (stereo not shown) [6-methyl-myristic acid 2,3-dihydroxypropyl ester] | inhibited the ability of neurokinin A to bind the NK2 receptor in a concentration-dependent manner | displayed antagonist activity
2 | CCCCCCCCCCCCCC(=O)OCC(O)CO (stereo not shown) [myristic acid 2,3-dihydroxypropyl ester] | inhibited the ability of neurokinin A to bind the NK2 receptor | displayed antagonist activity
